The text below walks through data of US20190247376A1, “NICOTINIC ACETYLCHOLINE RECEPTOR AGONIST ATTENUATES ILC2-DEPENDENT AIRWAY HYPERREACTIVITY” (University of Southern California, priority 2016, published 2019).

The test system of assay [1] is BALB/cByJ and α7nAChR−/− mice. Put plainly: IL-33-induced AHR in WT and α7nAChR-deficient mice. In kind it is in vivo, mouse. The note with it: rm-IL-33, agonist 125 μg days 1-3. The protocol:
FIGS. 4A-4E: α7nAChR expression is critical for GTS-21 action on ILC2s in vivo. BALB/cByJ and α7nAChR^−/− mice were intranasally challenged with rm-IL-33 or PBS, and also given α7nAChR agonist (125 μg) or PBS on days 1-3. Measurement of lung function and analysis of BAL followed on day 4. (FIG. 4A) Lung resistance. (FIG. 4B) Total number of eosinophils in BALF. (FIG. 4C) Rag^−/− GC^−/− mice were received ILC2s from either WT or α7nAChR^−/− mice. After the adoptive transfer, mice were intranasally challenged with rm-IL-33 or PBS; they also received α7nAChR agonist (125 μg) or PBS on days 1-3. Measurement of lung function and analysis of BAL followed on day 4, according to scheme 4C. (FIG. 4D) Lung resistance. (FIG. 4E) Total number of eosinophils in BALF. Data are representative of at least three independent experiments and are presented as means±SEM (n=4; Student's test ***, p<0.001, WT IL-33+α7nAChR agonist vs. α7nAChR^−/− IL-33+α7nAChR agonist).
To assess whether the previously observed effects of GTS-21 are due to its actions on the α7nAChR, Applicants challenged WT and α7nAChR-deficient mice with or without rm-IL-33, and with or without α7nAChR agonist, for three consecutive days (FIGS. 4A-4B). As expected, in the WT mice, the agonist repressed IL-33-induced AHR and eosinophilic infiltration.
Mice were intranasally (i.n.) administered carrier-free recombinant mouse IL-33 (BioLegend, San Diego Calif., 0.5 µg per mouse in 50 µL) with or without […] of α7nAChR agonist (kindly provided by Lin Chen) on three consecutive days. Mice were intranasally (i.n.) administered carrier-free recombinant mouse IL-25 (BioLegend, San Diego Calif., 5 µg per mouse in 50 µL) with or without […] of α7nAChR agonist on three consecutive days. For Alternaria alternata experiments, mice were i.n. administered Alternaria alternata (Greer Labs, Lenoir, N.C., 100 μg per mouse in 50 μL) with or without 125 µg α7nAChR agonist for four consecutive days. One day after the last challenge, mice were anesthetized using i.p. injection of ketamine (10 mg mL^−1) and xylazine (1 mg mL^−1). Measurements of airway resistance and dynamic compliance were conducted with the Fine Pointe RC System (Buxco Research Systems, Wilmington, N.C.), in which mice were mechanically ventilated using a modified version as previously described^36,67. Mice were sequentially challenged with aerosolized PBS (baseline), followed by increasing doses of methacholine. Maximum lung resistance (RL) and minimum compliance (Cdyn) values were recorded during a three-minute period after each methacholine challenge.

The target of assay [2] is α7 subtype of nAChR (Homo sapiens, UniProt P36544). To be noted: cited from earlier work.
Assay [3] deals with α4β2 subtype of nAChR (Homo sapiens, UniProt P17787+P43681). The note with it: cited from earlier work.

Molecules are shown by their SMILES.

α4β2 subtype of nAChR, sequence (P43681 29-627 limits assumed): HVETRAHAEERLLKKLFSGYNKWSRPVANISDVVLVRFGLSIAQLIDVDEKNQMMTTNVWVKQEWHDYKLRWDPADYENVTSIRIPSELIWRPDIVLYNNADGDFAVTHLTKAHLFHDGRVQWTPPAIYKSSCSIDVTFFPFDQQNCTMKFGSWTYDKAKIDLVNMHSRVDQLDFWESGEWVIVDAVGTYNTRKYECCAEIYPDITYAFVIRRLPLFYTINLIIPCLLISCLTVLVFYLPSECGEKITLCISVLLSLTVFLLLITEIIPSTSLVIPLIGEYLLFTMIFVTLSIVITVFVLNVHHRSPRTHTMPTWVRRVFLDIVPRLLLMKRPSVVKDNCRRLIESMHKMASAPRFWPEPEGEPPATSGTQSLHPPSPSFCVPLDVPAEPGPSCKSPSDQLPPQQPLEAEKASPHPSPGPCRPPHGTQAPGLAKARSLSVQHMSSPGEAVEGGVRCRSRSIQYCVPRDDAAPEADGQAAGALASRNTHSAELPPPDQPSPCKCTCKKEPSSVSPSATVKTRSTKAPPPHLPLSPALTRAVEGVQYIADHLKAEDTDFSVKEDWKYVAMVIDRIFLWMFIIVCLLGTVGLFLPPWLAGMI
α4β2 subtype of nAChR, sequence (P17787 26-502): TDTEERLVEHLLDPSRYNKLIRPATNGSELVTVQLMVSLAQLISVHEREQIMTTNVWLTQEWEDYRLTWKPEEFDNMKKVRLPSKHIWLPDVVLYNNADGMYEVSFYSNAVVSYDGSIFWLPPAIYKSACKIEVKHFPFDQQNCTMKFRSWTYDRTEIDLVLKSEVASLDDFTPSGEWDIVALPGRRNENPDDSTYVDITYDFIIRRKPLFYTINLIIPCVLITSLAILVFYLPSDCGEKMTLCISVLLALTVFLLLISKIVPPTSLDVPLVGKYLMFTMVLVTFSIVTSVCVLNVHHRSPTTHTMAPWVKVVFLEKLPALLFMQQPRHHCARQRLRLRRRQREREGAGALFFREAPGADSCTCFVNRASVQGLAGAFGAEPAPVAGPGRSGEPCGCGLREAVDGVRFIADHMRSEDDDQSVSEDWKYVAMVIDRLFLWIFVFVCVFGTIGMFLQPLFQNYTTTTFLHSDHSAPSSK
α7 subtype of nAChR, sequence (P36544 23-502): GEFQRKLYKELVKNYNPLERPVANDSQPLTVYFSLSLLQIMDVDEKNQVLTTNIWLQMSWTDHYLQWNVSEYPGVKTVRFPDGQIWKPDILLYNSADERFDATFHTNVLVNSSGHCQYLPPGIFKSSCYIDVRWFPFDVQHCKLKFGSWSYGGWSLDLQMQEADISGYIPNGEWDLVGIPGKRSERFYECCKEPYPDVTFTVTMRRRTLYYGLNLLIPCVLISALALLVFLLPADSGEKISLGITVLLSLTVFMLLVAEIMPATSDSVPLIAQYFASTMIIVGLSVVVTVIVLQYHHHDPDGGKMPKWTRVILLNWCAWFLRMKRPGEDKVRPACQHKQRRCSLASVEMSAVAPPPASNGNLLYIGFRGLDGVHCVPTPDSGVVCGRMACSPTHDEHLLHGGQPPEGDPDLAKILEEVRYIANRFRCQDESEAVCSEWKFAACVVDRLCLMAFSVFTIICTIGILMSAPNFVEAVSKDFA

As for `COc1ccc(/C=C2\CCCN=C2c2cccnc2)c(OC)c1` [GTS-21, 3-[(3E)-3-[(2,4-dimethoxyphenyl)methylidene]-5,6-dihydro-4H-pyridin-2-yl]pyridine], in assay [1] (WT mice), the “IL-33-induced AHR” value was “repressed” and the eosinophilic infiltration entry was “repressed”. For the same compound, in assay [1] (α7nAChR-deficient mice), the “IL-33-induced AHR” value is “affected neither AHR nor eosinophilia” and the eosinophilia result is given as “affected neither AHR nor eosinophilia”. Further, the “activation of nAChR subtypes” value in assay [2] is on record as “activates only the α7 subtype to a significant extent”. Also, in assay [3], the “binding to the α4β2 subtype” value was “binds”.
